Reference: ChEMBL document CHEMBL1121748, “Antimycotic imidazoles. 5. Synthesis and antimycotic properties of 1-[[2-aryl-4-(arylalkyl)-1,3-dioxolan-2-yl]methyl]-1H-imidazoles” (1981)

Assays:
[1] = test system: Aspergillus fumigatus; assay: Antifungal activity against Aspergillus fumigatus; format: functional
[2] = test system: Candida tropicalis; assay: Antifungal activity against Candida tropicalis; format: functional
[3] = test system: Erysipelothrix rhusiopathiae; assay: Antibacterial activity against Erysipelothrix insidiosa; format: functional
[4] = test system: Microsporum canis; assay: Antifungal activity against Microsporum canis; format: functional
[5] = test system: Mucor; assay: Antifungal activity against Mucor species; format: functional
[6] = test system: Phialophora verrucosa; assay: Antifungal activity against Phialophora verrucosa; format: functional
[7] = test system: Saprolegnia; assay: Antifungal activity against Saprolegnia species; format: functional
[8] = test system: Sporothrix schenckii; assay: Antifungal activity against Sporothrix schenck ii; format: functional
[9] = test system: Streptococcus pyogenes; assay: Antibacterial activity against Streptococcus pyogenes; format: functional
[10] = test system: Staphylococcus haemolyticus; assay: Antibacterial against Staphylococcus hemolyticus; format: functional
[11] = test system: Trichophyton benhamiae; assay: Antifungal activity against Trichophyton mentagrophytes; format: functional, trychophyton mentagrophytes
[12] = Ratio of animals cured to that of animals […], Tested in vivo for antifungal activity against vaginal candidosis in rat; 0/2; format: functional
[13] = test system: Trichophyton rubrum; assay: Antifungal activity against Trichophyton rubrum; format: functional
[14] = test system: Cryptococcus neoformans; assay: Antifungal activity against Cryptococcus neoformans; format: functional
[15] = test system: Candida albicans; assay: Antifungal activity against Candida albicans; format: functional
[16] = Ratio of animals cured to that of animals infected, tested in vivo for antifungal activity against cutaneous candidosis in guinea pig; 0/2; format: functional; also: test concentration or dose not given here
[17] = Ratio of animals cured to that of animals infected, tested in vivo for antifungal activity against vaginal candidosis in rat; 0/2; also: test concentration or dose not given here
For Ratio in this document: test concentration or dose not given here.

| Compound | Inhibition [1] [µg/mL] | Inhibition [2] [µg/mL] | Inhibition [3] [µg/mL] | Inhibition [4] [µg/mL] | Inhibition [5] [µg/mL] | Inhibition [6] [µg/mL] | Inhibition [7] [µg/mL] | Inhibition [8] [µg/mL] | Inhibition [9] [µg/mL] | Inhibition [10] [µg/mL] | Inhibition [11] [µg/mL] | Ratio [12] | Inhibition [13] [µg/mL] | Inhibition [14] [µg/mL] | Inhibition [15] [µg/mL] | Ratio [16] | Ratio [17] |
| --- | --- | --- | --- | --- | --- | --- | --- | --- | --- | --- | --- | --- | --- | --- | --- | --- | --- |
| Cc1ccc(C2COC(Cn3ccnc3)(c3ccc(Cl)cc3)O2)cc1 (centres undefined) | <1 | >100 | <1 | <1 | 100 | 100 | 100 | 10 | <1 | 100 | <1 | 0 | <1 | <1 | 100 | – | – |
| COc1ccc(CC2COC(Cn3ccnc3)(c3ccc(Cl)cc3Cl)O2)cc1 (centres undefined) | – | – | – | <1 | – | 10 | 10 | – | <1 | 100 | <1 | 0 | – | – | – | – | – |
| Brc1ccc(C2COC(Cn3ccnc3)(c3ccc(Br)cc3)O2)cc1 (centres undefined) | <1 | 100 | <1 | <1 | 10 | 100 | 100 | 10 | <1 | 10 | <1 | – | <1 | <1 | >100 | 0 | 0 |
| Cc1ccc(CC2COC(Cn3ccnc3)(c3ccc(Cl)cc3Cl)O2)cc1 (centres undefined) | 10 | >100 | <1 | <1 | 10 | 100 | 10 | 10 | <1 | <1 | <1 | 0 | <1 | <1 | 10 | – | – |
| Fc1ccc(CC2COC(Cn3ccnc3)(c3ccc(Cl)cc3Cl)O2)cc1 (centres undefined) | 10 | 100 | <1 | <1 | <1 | 100 | 10 | 10 | 10 | 10 | <1 | 0 | <1 | 10 | 100 | – | – |
| Clc1ccc(C2(Cn3ccnc3)OCC(CCc3ccc(-c4ccccc4)cc3)O2)c(Cl)c1 (centres undefined) | 10 | >100 | <1 | <1 | >100 | >100 | 10 | 10 | <1 | 100 | <1 | 0 | <1 | 10 | >100 | – | – |
| Clc1ccccc1C1COC(Cn2ccnc2)(c2ccc(Br)cc2)O1 (centres undefined) | 100 | >100 | <1 | <1 | 10 | 100 | 100 | 10 | 10 | 100 | <1 | – | <1 | <1 | 100 | 0 | 0 |
